Experimental data published in patent publication US11866431B2, “Bicyclic compounds” (Vivace Therapeutics, Inc., priority 2018, dated 2024).

Tested on: 8XTBD luciferase reporter (YAP reporter) in HEK293T cells
Experiment: YAP Reporter Assay
Assay type: cell-based
Settings: Homo sapiens, HEK-293T; HEK293T cells stably transfected with 8XTBD luciferase reporter and pRLTK; 24-hr incubation; top concentration 3 μM; read-out: Firefly Luciferase IC50
How it was run: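 Dual-luciferase read-out after 24 h compound exposure at 37° C, 5% CO2; IC50 and maximum inhibition given separately for 8XTBD-firefly and TK-renilla signals. Stable HEK293T reporter cells, 3×10^3/well, received 10-point 1:3 series starting 3 μM final, in quadruplicate.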

| Structure (SMILES) | IC50 |
| --- | --- |
| CC(C)(C)OC(=O)Nc1cccc(CNC(=O)c2ccc3c(-c4ccc(C(F)(F)F)cc4)cccc3c2)c1 [Compound 236, Tert-Butyl (3-((5-(4-(trifluoromethyl)phenyl)-2-naphthamido)methyl)phenyl)carbamate] | 0.1 to 1 µM |
| C[C@H](CCN)NC(=O)c1ccc2c(-c3ccc(C(F)(F)F)cc3)cccc2c1 [Compound 169, (R)—N-(4-aminobutan-2-yl)-5-(4-(trifluoromethyl)phenyl)-2-naphthamide] | 0.1 to 1 µM |
| COc1cc(-c2ccc(C(F)(F)F)cc2F)c2ncc(C(=O)N[C@@H](C)c3ccccn3)cc2c1 [Compound 232, (S)-8-(2-Fluoro-4-(trifluoromethyl)phenyl)-6-methoxy-N-(1-(pyridin-2-yl)ethyl)quinoline-3-carboxamide] | < 0.1 µM |
| O=C(NCc1ncsn1)c1ccc2c(-c3ccc(C(F)(F)F)cc3)cccc2c1 [Compound 193, N-((1,2,4-thiadiazol-3-yl)methyl)-5-(4-(trifluoromethyl)phenyl)-2-naphthamide] | < 0.1 µM |
| CCN1CC([C@@H](C)NC(=O)c2cnc3c(-c4ccc(C(F)(F)F)cc4)cccc3c2)C1 [Compound 150, N-[(1R)-1-(1-Ethylazetidin-3-yl)ethyl]-8-[4-(trifluoromethyl)phenyl]quinoline-3-carboxamide] | 1 to 3 µM |
| COc1cc(-c2ccc(C(F)(F)F)cc2)c2ccc(C(=O)NC(CO)c3ccccn3)cc2c1 (centres unmarked) [Compound 291, N-(2-Hydroxy-1-(pyridin-2-yl)ethyl)-7-methoxy-5-(4-(trifluoromethyl)phenyl)-2-naphthamide] | < 0.1 µM |
| COC(=O)c1ccc2c(-c3ccc(C(F)(F)F)cc3)cnc(O)c2c1 [Compound 14, Methyl 1-oxo-4-[4-(trifluoromethyl)phenyl]-2H-isoquinoline-7-carboxylate] | < 0.1 µM |
| O=C(NCc1ccnc(COc2ccon2)n1)c1ccc2c(-c3ccc(C(F)(F)F)cc3)cccc2c1 [Compound 171, N-((2-((Isoxazol-3-yloxy)methyl)pyrimidin-4-yl)methyl)-5-(4-(trifluoromethyl)phenyl)-2-naphthamide] | 0.1 to 1 µM |
| C[C@@H](NC(=O)c1ccc2c(-c3ccc(C(F)(F)F)cc3)cccc2c1)c1cn(C)cn1 [Compound 196, (R)—N-(1-(1-methyl-1H-imidazol-4-yl)ethyl)-5-(4-(trifluoromethyl)phenyl)-2-naphthamide] | 0.1 to 1 µM |
| COC[C@H](C)NC(=O)c1ccc2c(-c3ccc(C(F)(F)F)cc3)cc(OC)cc2c1 [Compound 294, (S)-7-Methoxy-N-(1-methoxypropan-2-yl)-5-(4-(trifluoromethyl)phenyl)-2-naphthamide] | < 0.1 µM |
| COCCC(=O)NCCOCCOCCNC(=O)c1ccc2c(-c3ccc(C(F)(F)F)cc3)cccc2c1 [Compound 77, N-(5-oxo-2,9,12-trioxa-6-azatetradecan-14-yl)-5-(4-(trifluoromethyl)phenyl)-2-naphthamide] | 0.1 to 1 µM |
| C[C@H](CCN(C)C)NC(=O)c1ccc2c(-c3ccc(C(F)(F)F)cc3)cccc2c1 [Compound 313, N-[(1R)-3-(dimethylamino)-1-methyl-propyl]-5-[4-(trifluoromethyl)phenyl]naphthalene-2-carboxamide] | 0.1 to 1 µM |
| N#CCNC(=O)c1ccc2c(-c3ccc(C(F)(F)F)cc3)cccc2c1 [Compound 113, N-(cyanomethyl)-5-(4-(trifluoromethyl)phenyl)-2-naphthamide] | < 0.1 µM |
| C#Cc1ccc(-c2ccc(C(F)(F)F)cc2)c2ccc(C(=O)NC(C)C)cc12 [Compound 20, 8-ethynyl-N-isopropyl-5-[4-(trifluoromethyl)phenyl]naphthalene-2-carboxamide] | < 0.1 µM |
| CC(C)NC(=O)c1ccc2c(-c3ccc(C(F)(F)F)cc3)cc(N)cc2c1 [Compound 44, 7-amino-N-isopropyl-5-[4-(trifluoromethyl)phenyl]naphthalene-2-carboxamide] | < 0.1 µM |
| N#Cc1cccc(CNC(=O)c2ccc3c(-c4ccc(C(F)(F)F)cc4)cccc3c2)c1 [Compound 215, N-(3-cyanobenzyl)-5-(4-(trifluoromethyl)phenyl)-2-naphthamide] | < 0.1 µM |
| C[C@H](CO)NC(=O)c1cnc2c(-c3ccc(C(F)(F)F)cc3)cccc2c1 [Compound 99, (R)—N-(1-hydroxypropan-2-yl)-8-(4-(trifluoromethyl)phenyl)quinoline-3-carboxamide] | < 0.1 µM |
| C[C@@H](CCN)NC(=O)c1ccc2c(-c3ccc(C(F)(F)F)cc3)cccc2c1 [Compound 168, (S)—N-(4-aminobutan-2-yl)-5-(4-(trifluoromethyl)phenyl)-2-naphthamide] | < 0.1 µM |
| O=C(O)c1cnc2c(-c3ccc(C(F)(F)F)cc3)cccc2n1 [Compound 334, 5-(4-(trifluoromethyl)phenyl)quinoxaline-2-carboxylic Acid] | 0.1 to 1 µM |
| CC(=O)Nc1ccc(-c2ccc(C(F)(F)F)cc2)c2ccc(C(=O)NC(C)C)cc12 [Compound 17, 8-acetamido-N-isopropyl-5-(4-(trifluoromethyl)phenyl)-2-naphthamide] | < 0.1 µM |
| CC(C)NC(=O)c1ccc2c(-c3ccc(C(F)(F)F)cc3)cccc2n1 [Compound 248, N-isopropyl-5-(4-(trifluoromethyl)phenyl)quinoline-2-carboxamide] | 0.1 to 1 µM |
| N#C/C=C/CCNC(=O)c1ccc2c(-c3ccc(C(F)(F)F)cc3)cccc2c1 [Compound 217, N-[(E)-4-cyanobut-3-enyl]-5-[4-(trifluoromethyl)phenyl]naphthalene-2-carboxamide] | < 0.1 µM |
| COc1cc(-c2ccc(C(F)(F)F)cc2)c2ncc(C(=O)N[C@H](C)c3ccccn3)cc2c1 [Compound 106, 6-methoxy-N-[(1R)-1-(2-pyridyl)ethyl]-8-[4-(trifluoromethyl)phenyl]quinoline-3-carboxamide] | 0.1 to 1 µM |
| COc1cc(-c2ccc(C(F)(F)F)cc2F)c2ncc(C(=O)N[C@H](C)CO)cc2c1 [Compound 233, (R)-8-(2-Fluoro-4-(trifluoromethyl)phenyl)-N-(1-hydroxypropan-2-yl)-6-methoxyquinoline-3-carboxamide] | < 0.1 µM |
| O=C(NCc1ccnc(Cl)n1)c1ccc2c(-c3ccc(C(F)(F)F)cc3)cccc2c1 [Compound 180, N-((2-chloropyrimidin-4-yl)methyl)-5-(4-(trifluoromethyl)phenyl)-2-naphthamide] | 0.1 to 1 µM |
| O=C(O)c1cnc2c(-c3ccc(C(F)(F)F)cc3)cc(Cl)c(Cl)c2c1 [Compound 326, 5,6-dichloro-8-(4-(trifluoromethyl)phenyl)quinoline-3-carboxylic Acid] | < 0.1 µM |
| O=C(NC1CC1)c1ccc2c(-c3ccc(C(F)(F)F)cc3)cccc2c1 [Compound 55, N-cyclopropyl-5-(4-(trifluoromethyl)phenyl)-2-naphthamide] | < 0.1 µM |
| COC(=O)/C=C/CCNC(=O)c1ccc2c(-c3ccc(C(F)(F)F)cc3)cccc2c1 [Compound 230, methyl (E)-5-[[5-[4-(trifluoromethyl)phenyl]naphthalene-2-carbonyl]amino]pent-2-enoate] | 0.1 to 1 µM |
| O=C(N[C@@H](CCO)c1ccccn1)c1ccc2c(-c3ccc(C(F)(F)F)cc3)cccc2c1 [Compound 164, (S)—N-(3-hydroxy-1-(pyridin-2-yl)propyl)-5-(4-(trifluoromethyl)phenyl)-2-naphthamide] | < 0.1 µM |
